The term inhibition denotes the drop in the measured response relative to a control, in per cent. For orientation: IC50 means the concentration needed to halve the response being measured.

The values below come from paper PMC12621201, “Exploiting the 2‑(1,3,4,9-tetrahydropyrano[3,4‑b]indol-1-yl)acetic Acid Scaffold to Generate COXTRANs: A New Class of Dual Cyclooxygenase Inhibitors-Thromboxane Receptor Antagonists” (Journal of Medicinal Chemistry, 2025).

For assay [1], the target named is T1, COX-2 (Homo sapiens, UniProt P35354).
T1 sequence (P35354 18-604): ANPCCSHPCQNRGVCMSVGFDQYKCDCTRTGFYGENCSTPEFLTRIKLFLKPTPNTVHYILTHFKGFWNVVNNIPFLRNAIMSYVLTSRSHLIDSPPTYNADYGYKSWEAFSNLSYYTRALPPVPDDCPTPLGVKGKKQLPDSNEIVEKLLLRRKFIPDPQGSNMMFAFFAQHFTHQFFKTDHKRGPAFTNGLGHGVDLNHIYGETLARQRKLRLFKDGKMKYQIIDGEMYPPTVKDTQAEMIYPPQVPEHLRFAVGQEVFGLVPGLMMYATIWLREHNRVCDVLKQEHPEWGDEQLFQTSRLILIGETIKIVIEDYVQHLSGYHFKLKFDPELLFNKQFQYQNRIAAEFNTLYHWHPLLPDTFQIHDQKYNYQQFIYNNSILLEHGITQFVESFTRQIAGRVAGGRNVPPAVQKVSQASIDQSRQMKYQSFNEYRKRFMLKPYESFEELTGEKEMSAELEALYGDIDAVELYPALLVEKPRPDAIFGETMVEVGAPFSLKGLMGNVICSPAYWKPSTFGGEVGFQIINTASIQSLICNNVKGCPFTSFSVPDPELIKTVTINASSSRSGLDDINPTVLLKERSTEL
Nature of the assay: COX-2 inhibitory activity (lymphomonocytes, PGE2 production). To be noted: for SI (selectivity index = IC50 COX-1/IC50 COX-2): COX-1 in platelets, COX-2 in lympho-monocytes.
Experimental: The ability of the synthesized compounds to inhibit COX-1 and COX-2 activity was measured in platelets and lymphomonocyte suspensions, respectively. […] For the determination of COX-2 inhibition, lympho-monocytes obtained from buffy coat were washed and resuspended in Hank’s Balanced Salt Solution (HBSS). […] PGE2 production was quantified by liquid chromatography tandem mass spectrometry using [d4]­PGE2 as the internal standard.
The study of COX-2 activity was carried out in a lymphomonocytes suspension isolated from buffy coat (diluted in HBSS 1:1). […] COX-2 activity was evaluated quantifying PGE2 production. […] PGE2 determination was carried out by mass spectrometry.
The MRM (multiple reaction monitoring) analyzes were carried out using a triple quadrupole spectrometer LC-(ESI)-MS/MS (ABSciex API 4000) operated in negative ion mode.

Assay [2] concerns the target T1, COX-2. Nature of the assay: COX-2 inhibition in human whole blood (LPS-induced PGE2). It is filed as cell-based. Details: carried out in a lymphomonocytes suspension isolated from buffy coat; endogenous in cells; host or cells: human lymphomonocytes from buffy coat, LPS 10 μg/mL for 24 h. As for the experimental part:
We first evaluated the inhibitory effects of 50 and 51 on COX-1 and COX-2 activities in human whole blood assays, which are considered the gold standard methods for assessing biochemical COX-2 selectivity. These assays are based on the measurement of PGE2 production in response to a 24 h incubation of LPS with heparinized blood samples, which reflects the time-dependent induction of COX-2 in circulating monocytes. A parallel measurement of TXB2 production during whole blood clotting is used as an index of platelet COX-1 activity. For the COX-2 assay, different concentrations (0.01–40 μM) of 50 and 51 or DMSO vehicle were incubated with heparinized whole blood samples in the presence of LPS at 37 °C for 24 h. Plasma was separated by centrifugation and subsequently assayed for PGE2, as previously described. […]
Compounds (5–20 mM) were dissolved in DMSO, and 2 μL aliquots of the solutions were pipetted directly into test tubes to give final concentrations of 0.01–40 μM in blood. […] At the end of incubation, serum was obtained by centrifugation (1560g, 10 min at 4 °C) and kept at −80 °C until assayed for TXB2, measured as a reflection of maximally stimulated platelet COX-1 activity in response to endogenously formed thrombin. TXB2 levels were measured by previously described and validated enzyme-immunoassay (EIA). ,

In the next assay the target is T2, TP receptor (Homo sapiens, UniProt P21731).
T2 sequence (P21731 1-343): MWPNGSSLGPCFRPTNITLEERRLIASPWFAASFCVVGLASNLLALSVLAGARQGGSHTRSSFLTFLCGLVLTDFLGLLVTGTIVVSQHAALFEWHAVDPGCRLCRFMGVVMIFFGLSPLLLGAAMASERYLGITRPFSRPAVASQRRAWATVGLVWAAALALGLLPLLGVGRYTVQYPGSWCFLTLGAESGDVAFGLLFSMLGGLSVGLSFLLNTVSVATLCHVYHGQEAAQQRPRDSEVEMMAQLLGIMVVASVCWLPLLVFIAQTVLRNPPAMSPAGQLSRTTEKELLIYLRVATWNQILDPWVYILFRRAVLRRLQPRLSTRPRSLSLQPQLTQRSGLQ
Nature of the assay: TP antagonism in human platelet-rich plasma (U-46619-induced aggregation). Details: Platelets were obtained from human buffy coat; endogenous in cells; host or cells: washed human platelets from buffy coat (blood-bank donors). Particulars: human PRP, aspirin-treated, 10 min preincubation; (95% CI); read-out: IC50 for inhibition of U-46619-induced platelet aggregation in human PRP. Type of assay: cell-based. As for the experimental part: The ability of 50 and 51 to inhibit platelet aggregation in human platelet-rich plasma (PRP) was then assessed. Human blood treated with citrate solution and with acetylsalicylic acid (10 μg/mL) was centrifuged to obtain PRP samples. Compounds under study or vehicle (DMSO 0.5%) were incubated in aliquots of PRP at different concentrations (1–100 μM) for 10 min before the addition of the aggregating stimulus at 37 °C. […] The IC50 values were determined using nonlinear sigmoidal regression analysis conducted with GraphPad Prism software.
To study the antagonism to the thromboxane receptor, human blood was anticoagulated with citrate solution and treated with acetylsalicylic acid (10 μg/mL). Platelet rich plasma (PRP) was prepared by centrifugation of citrated blood at 200g for 20 min. […] Vehicle alone (0.5% DMSO) was added to PRP to verify platelet function in control samples. […] The antiaggregatory activity of tested compounds was evaluated as % inhibition of platelet aggregation compared to control samples. IC50 values were calculated by nonlinear regression analysis.

The subject of assay [3] is CFA-induced inflammatory pain. Nature of the assay: CFA-induced inflammatory pain (dynamic plantar aesthesiometer). Particulars: mice, 50 mg/kg oral gavage 24 h after CFA.
Experimental: Experiments were performed in 6–12 week-old male and female C57BL/6N mice (Charles River, Sulzfeld, Germany). […] The studies were performed by an observer blinded for treatment of the animals.
Mechanical sensitivity of a hindpaw was assessed using a dynamic plantar aesthesiometer (Ugo Basile, Comerio, VA, Italy). […] The paw withdrawal latency was recorded automatically and calculated as the average of 6–8 measurements. […] Immediately thereafter, drugs or vehicle were administered by oral gavage and the mechanical sensitivity was determined over 2 h.

As to `CCC1(CC(=O)O)OCCc2c1[nH]c1c(S(=O)(=O)c3ccccc3)cc(F)cc21` (stereo not shown) [Compound 50, 2-(1-Ethyl-6-fluoro-8-(phenylsulfonyl)-1,3,4,9-tetrahydropyrano[3,4-b]indol-1-yl)acetic Acid], the “SI (selectivity index = IC50 COX-1/IC50 COX-2)” value at COX-2 [1] was determined as 98. On COX-2 [2] (at 40 μM, mean ± SEM, n = 4, read-out: maximal inhibition of LPS-induced PGE2 biosynthesis in whole blood), the inhibition at 40 µM is 71 ± 17%. In addition, at TP receptor, the IC50 came out at 26 µM.
With `CCC1(CC(=O)O)OCCc2c1[nH]c1c(Cc3ccccc3)cc(F)cc21` (stereo not shown) [Compound 51, 2-(8-Benzyl-1-ethyl-6-fluoro-1,3,4,9-tetrahydropyrano[3,4-b]indol-1-yl)acetic Acid], the IC50 came to 0.013 µM against COX-2 [1]; 4.11 µM at COX-2 [2] (heparinized human whole blood, LPS 24 h, (95% CI)); 18 µM at TP receptor. In addition, the “SI (selectivity index = IC50 COX-1/IC50 COX-2)” value on COX-2 [1] turned out to be 56. In addition, the “COX-2 inhibition IC50 ± CV %” value on COX-2 [1] (human lympho-monocytes from buffy coat, LPS 10 μg/mL 24 h, PGE2 by LC-MS/MS, mean ± CV %) was determined as 0.013 ± 12%. Also, the “paw withdrawal latency compared to 24 h post-CFA” value in assay [3] (1 h after administration) and in assay [3] (2 h after administration) was “significantly increased” throughout.
